In patent US12195490B2, “STRAD-binding agents and uses thereof” (The Regents of the University of California, priority 2020, dated 2025):

Each compound was assayed on ACHN cell line (assay: drug screen of the SelleckChem kinase inhibitor library with and without 5 uM SU-329, Cell-Titer Glo after 5 days). Conditions: kinase inhibitor at 200 nM with and without 5 uM SU329; ACHN cell line; 5 days; Cell-Titer Glo.
Type: cell-based
Compound Cc1cnc(Nc2ccc(N3CCN(C)CC3)cc2)nc1Nc1cccc(S(=O)(=O)NC(C)(C)C)c1 [TG101209] has a log2fc of −0.1573. Work on N#C/C(=C/c1ccc(O)c(O)c1)C(=O)NCc1ccccc1 [AG-490 (Tyrphostin B42), AG-490, reference compound] yielded a log2fc of −0.01509. For Cc1cc([C@@H](C)Nc2ccccc2C(=O)O)c2nc(N3CCOCC3)cc(=O)n2c1 [AZD6482], the log2fc was −0.1098. Work on CNC(=O)c1ccc(C)c(-n2c(C)cc(OCc3ccc(F)cc3F)c(Br)c2=O)c1 [PH-797804] yielded a log2fc of −0.5678. CCCNC(=O)Nc1ccc(Oc2ncnc3cc(OC)c(OC)cc23)cc1Cl [KRN 633] gave a log2fc of 0.02524. Oc1cc(O)cc(/C=C/c2ccc(O)c(O)c2)c1 [Piceatannol] gave a log2fc of 0.5447. COc1cc2ncnc(Oc3ccc(CC(=O)Nc4cnn(C(C)C)c4)cc3)c2cc1OC [AZD2932] gave a log2fc of 0.4428. With COc1cc2c(Oc3ccc(NC(=O)C4(C(=O)Nc5ccc(F)cc5)CC4)cc3F)ccnc2cc1OCCCN1CCOCC1 [Foretinib (GSK1363089)] the log2fc was −0.1359. CCn1c(=O)c(-c2ccc(-c3cncs3)cc2Cl)cc2cnc(Nc3ccc(N4CCN(C)CC4)cc3)nc21 [FRAX597] gave a log2fc of −0.0718. In the case of Cc1ccc(NC(=O)c2ccc(CN3CCN(C)CC3)cc2)cc1Nc1nc(-c2cccnc2)cs1 [Masitinib (AB1010)], the log2fc is reported as 0.1874. Work on Cc1ccc(Nc2nccc(N(C)c3ccc4c(C)n(C)nc4c3)n2)cc1S(N)(=O)=O [Pazopanib] yielded a log2fc of −0.1316. For CCn1c(-c2nonc2N)nc2c(C#CC(C)(C)O)ncc(OC[C@H]3CCCNC3)c21 [GSK690693], the log2fc was −0.5999. In the case of CNC(=O)c1cc(Oc2ccc(NC(=O)Nc3ccc(Cl)c(C(F)(F)F)c3)cc2)ccn1 [Sorafenib, sorafenib, reference compound], the log2fc is reported as 0.2462. O=C(NC1CCNCC1)c1n[nH]cc1NC(=O)c1c(Cl)cccc1Cl [AT7519] gave a log2fc of −1.085. For C[C@@H]1COCCN1c1cc(C2(S(C)(=O)=O)CC2)nc(-c2cccc3[nH]ccc23)n1 [AZ20], the log2fc was −0.01528. CN1CCN(C2CCN(C(=O)Nc3cc(Oc4ccc(NC(=O)C5(C(=O)Nc6ccc(F)cc6)CC5)c(F)c4)ccn3)CC2)CC1 [Golvatinib (E7050)] showed a log2fc of −0.1341. With Cc1cc(N2CCOCC2)cc2[nH]c(-c3c(NC[C@@H](O)c4cccc(Cl)c4)cc[nH]c3=O)nc12 [BMS-536924] the log2fc was 0.4161. Cn1sc(=O)n(Cc2ccccc2)c1=O [TDZD-8] showed a log2fc of 0.1552. COc1cc(Nc2ncc3c(n2)-c2ccc(Cl)cc2C(c2c(F)cccc2OC)=NC3)ccc1C(=O)O [Alisertib (MLN8237)] gave a log2fc of 0.7052. With Nc1nccc(Oc2ccc(NC(=O)c3c[nH]cc(-c4ccc(F)cc4)c3=O)cc2F)c1Cl [BMS-794833] the log2fc was −0.04405. Cc1cc(Nc2cc(CN3CCOCC3)c3nc(C)c(Cc4ccc(Cl)cc4F)n3n2)n[nH]1 [Gandotinib (LY2784544)] showed a log2fc of 1.04. For Nc1ncnc2c1c(-c1cccc(OCc3ccccc3)c1)cn2C1CC(CN2CCC2)C1 (stereo not shown) [NVP-AEW541], the log2fc was 0.2179. With CN1CCN(c2cccc(Nc3nc4c(-c5ccc(S(C)(=O)=O)cc5)cccn4n3)c2)CC1 [CEP-33779] the log2fc was −0.6078. For CCN1CCN(C(=O)Cc2ccc(Nc3ncc(F)c(Nc4ccc(C(=O)Nc5ccccc5Cl)cc4)n3)cc2)CC1 [Aurora A Inhibitor I], the log2fc was −0.1962. Compound CC1(C)CNc2cc(NC(=O)c3cccnc3NCc3ccncc3)ccc21.O=P(O)(O)O.O=P(O)(O)O [Motesanib Diphosphate (AMG-706)] has a log2fc of −0.1118. Compound O=c1ncn2nc(Sc3ccc(F)cc3F)ccc2c1-c1c(Cl)cccc1Cl [VX-745] has a log2fc of −0.2953. With CCOc1cc(N2CCC(O)CC2)ccc1Nc1ncc2c(n1)N(C)c1ccccc1C(=O)N2C [XMD8-92] the log2fc was −0.09901. NC(=O)c1ccc(N(C(N)=O)c2c(F)cccc2F)nc1-c1ccc(F)cc1F [VX-702] showed a log2fc of −0.1168. C#Cc1cccc(Nc2ncnc3cc(OCCOC)c(OCCO)cc23)c1.Cl [OSI-420, desmethyl erlotinib, reference compound] gave a log2fc of −0.04846. In the case of KN-62, the log2fc is reported as −0.07258. O=C(NOC[C@H](O)CO)c1ccc(F)c(F)c1Nc1ccc(I)cc1F [PD0325901] was tested, and the log2fc was 0.3925. In the case of Clc1ccc(C2(c3ccc(-c4cn[nH]c4)cc3)CCNCC2)cc1 [AT7867], the log2fc is reported as −0.935. In the case of CCOc1ccn(-c2ccc(F)cc2)c(=O)c1C(=O)Nc1ccc(Oc2ccnc(N)c2Cl)c(F)c1 [BMS-777607], the log2fc is reported as −0.5095. CCN1CCN(Cc2ccc(C(=O)Nc3ccc(C)c(Oc4ccc5c(c4)CC(=O)N5)c3)cc2C(F)(F)F)CC1 [DDR1-IN-1] showed a log2fc of −0.4228. Compound CNC(=O)Nc1ccc(-c2nc(N3CC4CCC(C3)O4)c3cnn(C4CCC5(CC4)OCCO5)c3n2)cc1 [WYE-125132 (WYE-132)] has a log2fc of 0.04946. Compound CNC(=O)c1ccccc1Nc1nc(Nc2ccc(N3CCOCC3)cc2OC)ncc1Cl [TAE226 (NVP-TAE226)] has a log2fc of −0.08897. With Cl.Cl.NC1(c2ccc(-c3nc4ccn5c(=O)[nH]nc5c4cc3-c3ccccc3)cc2)CCC1 [MK-2206 2HCl] the log2fc was −0.1575. COc1cc(OC)c(/C=C/S(=O)(=O)Cc2ccc(OC)c(NCC(=O)O)c2)c(OC)c1 [Rigosertib (ON-01910)] gave a log2fc of 0.6643. GZD824 Dimesylate was tested, and the log2fc was 1.434. Cc1cc(CS(=O)(=O)c2ccccc2)cc(OCc2ccc(CN3CCC[C@@H]3CO)cc2)c1 [PF-543] showed a log2fc of 0.8598. Compound CN(C[C@@H]1COCCO1)S(=O)(=O)Nc1ccc2ccc3ncc(-c4cnn(C)c4)cc3c(=O)c2c1 [MK-2461] has a log2fc of 0.09192. With O=c1ccc2ccc(O)c(O)c2o1 [Daphnetin] the log2fc was 0.08794. With C[S+]([O-])c1ccc(-c2nc(-c3ccc(F)cc3)c(-c3ccncc3)[nH]2)cc1 (stereo not shown) [SB203580] the log2fc was −0.09424. CCN(CC)CCCCNc1ncc2cc(-c3cc(OC)cc(OC)c3)c(NC(=O)NC(C)(C)C)nc2n1 [PD173074] was tested, and the log2fc was 0.1032. Cc1cc(C(=O)NOCCO)c(Nc2ccc(I)cc2F)n(C)c1=O [AZD8330] was tested, and the log2fc was 0.5935. For CO[C@H]1C[C@@H]2CC[C@@H](C)[C@@](O)(O2)C(=O)C(=O)N2CCCC[C@H]2C(=O)O[C@H]([C@H](C)C[C@@H]2CC[C@@H](O)[C@H](OC)C2)CC(=O)[C@H](C)/C=C(\C)[C@@H](O)[C@@H](OC)C(=O)[C@H](C)C[C@H](C)/C=C/C=C/C=C/1C [Rapamycin (Sirolimus)], the log2fc was −1.552. CC(C)c1cnn2c(NCc3ccccc3)cc(NCCCCCCN)nc12.Cl [BS-181 HCl] was tested, and the log2fc was 0.09476. O=C(c1ccc(/C=C/c2n[nH]c3ccccc23)cc1)N1CCNCC1 [KW-2449] gave a log2fc of −0.0564. Nc1ncnc2c1c(-c1cnc3[nH]ccc3c1)nn2C1CCCC1 [PP121] gave a log2fc of −0.5206. Compound CSc1cccc(Nc2ncc3cc(-c4c(Cl)cccc4Cl)c(=O)n(C)c3n2)c1 [PD173955] has a log2fc of −0.1932. Work on CO[C@H]1C[C@@H]2CC[C@@H](C)[C@@](O)(O2)C(=O)C(=O)N2CCCC[C@H]2C(=O)O[C@H]([C@H](C)C[C@@H]2CC[C@@H](OC(=O)C(C)(CO)CO)[C@H](OC)C2)CC(=O)[C@H](C)/C=C(\C)[C@@H](O)[C@@H](OC)C(=O)[C@H](C)C[C@H](C)/C=C/C=C/C=C/1C [Temsirolimus (CCI-779, NSC 683864)] yielded a log2fc of −1.524. O=c1c(-c2ccc(O)cc2)coc2cc(O)cc(O)c12 [Genistein] was tested, and the log2fc was 0.05262.
